Experiments:
LL2 tumor = experiment: Murine syngeneic LL2 lung tumor model; assay type: in vivo; details: LL2 tumor-bearing mice
Method: Briefly, LL2 cells that had been transfected with the luciferase reporter gene were inoculated subcutaneously into C57BL/6 mice.
LL2 cells (5×10^5) expressing a luciferase reporter were inoculated subcutaneously into the backs of C57BL/6 mice, as a lung cancer animal model. After 7 days, saline control or copolypeptides were injected intratumorally to start the beginning of the timeline (day zero). […] Tumor growth, body weight, and survival were closely monitored. Tumor volume was calculated using the following equation: (length of tumor)×(width of tumor)^2×0.45 by measuring the tumors in two perpendicular axes with a tissue caliper. Once the tumor volume reached 2,000 mm^3, the mice were sacrificed and subsequently recorded as dead. […] On day 12, mice were intraperitoneally injected with D-luciferin potassium salt (200 μL, 10 mg/mL, Thermo Fisher Scientific), followed by anesthesia with 2% isoflurane in order to perform in vivo bioluminescence imaging. An IVIS-200 Perkin Elmer system with its integrated acquisition and analysis software (Living Image V. 2.50) was performed to quantify the said signals. On day 32, an optical microscope was used to examine the number of pulmonary metastatic nodules.

H1299 cells [1] = experiment: Cytotoxicity, CCK-8 assay; assay type: cell-based; details: H1299, linear copolypeptides, 0 to 100 μM
Method: The cytotoxicity of copolypeptides at various concentrations or in combination with cisplatin (5 μM) was evaluated by incubating with A549, BEAS-2B, and H1299 cells (5×10^3 cells/well) in 96-well plates for 24 h using 10% FBS DMEM as the medium. After adding CCK-8 reagent (Targetmol) dissolved in serum-free medium, the well plates were incubated at 37° C. for 1 h. Upon transferring the medium to fresh 96-well plates, the absorbance of each well was measured at 450 nm using a Microplate Spectrophotometer (BioTek). The percentages of viable cells were calculated by the below equation:
Cell viability (%)=(Absorbancetest cell−Absorbanceblank)/(Absorbancecontrol cell−Absorbanceblank)×100

[2] = system: H1299 (p53-deficient) cells; experiment: Transfection efficiency of copolypeptides/pDNA polyplexes; assay type: cell-based; details: H1299, relative to lipofectamine 2000
Excerpt: LysmBnCys5 copolypeptides (m=5, 10, and 15, i.e., SEQ ID NOs: 2, 5, and 3)) efficiently carried p53 gene (pcDNA3 p53 WT plasmid) into H1299 (p53-deficient) cells and enhanced chemotherapeutic treatment. […] Improved transfection efficiency was mainly attributed to optimal polyplex stability, determined by peptide charge density and rigidity. […] Moreover, treatment with both LysmBnCys5/p53 gene vector and cisplatin extended the survival rates of tumor-bearing mice.
FIGS. 22A-22B are results showing the p53 gene transfection efficiencies of various star-shaped copolypeptides to H1299 cells.
5.0 μM copolypeptides or 4.0 μL lipofectamine 2000 (Thermo Fisher Scientific) were mixed with 4.0 μg of plasmid DNA (pEGFP-C, Clontech) in 1 mL serum-free DMEM and left standing for 20 min. After cell concentration reached 2×10^5 cells/well in 6-well plates, the culture medium was replaced with 1 mL copolypeptides/DNA complexes (polyplexes) and incubated for 6 h. […] Green fluorescent protein (GFP) expression of transfected cells was examined under an inverted fluorescence microscope (IX71, Olympus). Quantitative evaluation of the transfection efficiency was also conducted using a flow cytometer (BD Biosciences). […] Transfection efficiency was then calculated as the percentage of cells expressing GFP, with the fluorescence of 2×10^4 cells evaluated by flow cytometry.

[3] = Secondary conformation by circular dichroism (BeStSel fit); assay type: physicochemical; details: CD, 0.1 mg mL^−1 in DI water, neutral condition
Method: The BeStSel software (Beta Structure Selection) was used to compute the percentages of peptide chain conformation by fitting the CD spectra.
The MALDI-TOF MS spectrum of the side-chain protected peptide was recorded in the reflection mode of a MALDI-TOF spectrometer (Bruker Autoflex III TOF/TOF). […] For CD measurements, the concentration of peptide samples in DI water was 0.1 mg mL^−1. SAXS patterns of peptide solutions were recorded on a Bruker NanoSTAR U diffractometer with controlled voltage 45 kV and current 650 μA at room temperature under 4×10^−1 torr. The critical aggregation concentration (cac) of peptides was determined by measuring the pyrene emission spectra of various peptide solutions with an integration time of 1.0 sec using a Hitachi FL-4500 fluorescence spectrophotometer.

H1299 cells [4] = experiment: Membrane staining with 1,1′-diethyl-4,4′-carbocyanine iodide; assay type: cell-based; details: H1299, 4 μM, 6 h
caspase-3, and PARP = experiment: Immunoblot analysis in H1299 cells; assay type: cell-based; details: H1299, 24 h
Method: (§1) In the present disclosure, E-cadherin is one of the crucial molecules in cell-cell adhesion, participating in cancer progression.
(§2) The immunoblot analysis was conducted by treating H1299 cells with copolypeptides (4 μM) in the presence or absence of cisplatin (5 μM) for 24 h, followed by extraction using RIPA Lysis and Extraction Buffer (Thermo Fisher Scientific) and then separation by using 8% SDS-PAGE. Upon transferring onto NC membranes (0.22 μm) blocked in 5% fat-free dry milk, the proteins were incubated with primary antibodies against E-cadherin, caspase-3, poly(ADP-ribose) polymerase (PARP), and β-actin, followed by incubation with their appropriate secondary antibodies. An Immobilon Western Chemiluminescent HRP Substrate kit (Merck) was used to form visualized protein bands and the intensities of the protein bands were quantified using the Image J software (Image Processing and Analysis in Java) by normalizing to that of β-actin.

E-cadherin = experiment: Immunoblot analysis in H1299 cells; assay type: cell-based; details: H1299, 24 h
Method: as §1, §2

A549 cells = experiment: Membrane staining with 1,1′-diethyl-4,4′-carbocyanine iodide; assay type: cell-based; details: A549, 4 μM, 6 h

Compound: N.N.[Cl][Pt][Cl] [cisplatin]
- body weight loss (LL2 tumor): weight loss

Compound: Lys15BnCys5: poly-L-lysine-block-poly-S-benzyl-L-cysteine, 15 and 5 residues
- cell viability (H1299 cells [1]): cell viability decreased with increasing concentration
- transfection efficiency [2]: almost equivalent to that using lipofectamine 2000

Compound: Lys10BnCys5: poly-L-lysine-block-poly-S-benzyl-L-cysteine, 10 and 5 residues
- cell viability (H1299 cells [1]): cell viability decreased with increasing concentration

Compound: poly-L-lysine (LLLLLLLLLLLLLLL) [PLL15, poly-L-lysine, 15 residues]
- cell viability (H1299 cells [1]): cell viability decreased with increasing concentration

Compound: poly-L-guanidinylated lysine [PLGL15]
- cell viability (H1299 cells [1]): cell viability decreased with increasing concentration

Compound: LLLLLCCCCC [Lys5Cys5]
- Random coil (%) [3]: 32.0%
- ß-sheet/turn (%) [3]: 68.0%
- membrane staining with 1,1′-diethyl-4,4′-carbocyanine iodide (H1299 cells [4]): not
- caspase-3 and PARP expression (caspase-3, and PARP): triggered caspase-3, and PARP expression significantly
- E-cadherin expression (E-cadherin): reduced E-cadherin expression
- membrane staining with 1,1′-diethyl-4,4′-carbocyanine iodide (A549 cells): not

From patent US20240228537A1, “BLOCK COPOLYPEPTIDES AND USE THEREOF” (National Cheng Kung University, priority 2023, published 2024)
